Experimental findings from the OligoGym collection are described below.

These antisense oligonucleotides have a phosphorothioate backbone; sugars and methylation of C are not fully specified.
Note: test concentration or dose not given here.

One data set has as its target GNAI3. The following applies: ASO.
Regarding CCACCATCTCGCCATAAC, the remaining target (mRNA or protein) (fraction of control) was found to be 0.77. CAATAAAGTCCACATTCC gave a remaining target (mRNA or protein) (fraction of control) of no less than 1. Same read-out and setting: in the case of TAAAGAGTGCTAAGATTC it was 0.72; in that of TTAAGGAAGAGAATGATT, no less than 1; in that of TATTGGAACCTGTGTATT, 0.54. On the same count and under the same terms, the same measure for TGGTCTTCACTCTCGTCC: 0.21. Still for that read-out and setting: the same measure for TCAACTTCACATCTTCCA: 0.62.

In the case of AAGGTGTCTGGTCTCAAC, the remaining target (mRNA or protein) (fraction of control) is 0.56. On the same count and under the same terms, the same measure for AAATGTGTTTCTACAATG: 0.9; for ACTCCACACTGTAGTAAC: 0.45. The sequence ACAATGCCTGTGGTCTTC registered a remaining target (mRNA or protein) (fraction of control) of no less than 1. In turn, TAAAGTTATTCTTCTCTT returned a remaining target (mRNA or protein) (fraction of control) of 0.88. On the same count and under the same terms, the same measure for CATGAGACAGCAAAAGGT: 0.92; for AGCCAGAACAAGGTCATA: 0.88. On the same count and under the same terms, in the case of TCACTCTCGTCCGAAGAA it was 0.41; in that of GGTATCTTTTCTTCTGTT, 0.48. Still for that read-out and setting: the same measure for TAACGGACTCCTCTTTAT: 0.25. Take ATTGTTTACATTCATCCT: the remaining target (mRNA or protein) (fraction of control) was no less than 1. Sequence AGAGAATGATTGAAGTTT had a remaining target (mRNA or protein) (fraction of control) of 0.99. Turning to CTCAACACTCCACACTGT, the remaining target (mRNA or protein) (fraction of control) was determined as 0.9.

A further data set has as its target RELA. As to conditions: ASO.
With TTCGGTTCACTCGGCAGA, the remaining target (mRNA or protein) (fraction of control) was no less than 1. Regarding GCCGGTGAGGAGGGTCCT, the remaining target (mRNA or protein) (fraction of control) is 0.71.

The sequence GCACATCAGCTTGCGAAA returned a remaining target (mRNA or protein) (fraction of control) of no less than 1. Sequence ATGCGTCGAGGTGGAGGC returned a remaining target (mRNA or protein) (fraction of control) of 0.6. On the same count and under the same terms, the same measure for GACAGCGTTCCTTCCCCA: no less than 1; for CAAAGATGGGATGAGGAA: no less than 1. On the same count and under the same terms, the same measure for ATGGGTCCCGCACTGTCA: 0.38. On the same count and under the same terms, in the case of GCAGTCCTTTCCTACAAG it was 0.95; in that of CTGCCGGGAAGATGAGGG, 0.84; in that of TGTCCTTTTACGTTTCTC, 0.74. In the case of GCTCAGGGATGACGTAAA, the remaining target (mRNA or protein) (fraction of control) is 0.45. AGCTGAGCTGCGGGAAGG yielded a remaining target (mRNA or protein) (fraction of control) of 0.86. Take CTCATAGAAGCCATCCCG: the remaining target (mRNA or protein) (fraction of control) worked out at 0.69. On the same count and under the same terms, in the case of GTTGTTGGTCTGGATGCG it was 0.63. In turn, TGCCCAGAAGGAAACACC came in with a remaining target (mRNA or protein) (fraction of control) of 0.66.

With GTCTGTGCTGTTGCCAAG, the remaining target (mRNA or protein) (fraction of control) amounted to 0.87.

The sequence GATCTGACTCAGCAGGGC gave a remaining target (mRNA or protein) (fraction of control) of 0.27.

TCACACACTGGATTCCCA showed a remaining target (mRNA or protein) (fraction of control) of 0.81. The same measure, in the same setting: the same measure for TCTGGAAACTGTGGATGC: no less than 1; for GGATGCGCTGACTGATAG: 0.31; for ATGGAGGAGAAGTCTTCA: no less than 1. GACGAGCCATTCGCCGGA had a remaining target (mRNA or protein) (fraction of control) of 0.52. Still for that read-out and setting: the same measure for CTCAATGATCTCCACATA: no less than 1; for TTCTGCACCTTGTCACAC: 0.37.

A further data set has as its target CTNNB1. The following applies: ASO.
The sequence GTACGCACAAGAGCCTCTAT returned a remaining target (mRNA or protein) (fraction of control) of 0.29. The sequence GCACGAACAAGCAACTGAAC had a remaining target (mRNA or protein) (fraction of control) of 0.37. On to CGACCTGCGGTGGCGGCTCG, for which the remaining target (mRNA or protein) (fraction of control) is 0.36. On the same count and under the same terms, in the case of ACCAAGCATTTTCACCAGGG it was 0.4; in that of AGGTGCATGATTTGCGGGAC, 0.62; in that of CCCCTCGCTCTCCGCTCCCG, 0.07.

TAGCAGTTTTGTCAGTTCAG returned a remaining target (mRNA or protein) (fraction of control) of no less than 1. TCAGCTTGAGTAGCCATTGT displayed a remaining target (mRNA or protein) (fraction of control) of 0.31. The sequence CAAAACAAGGTTCCAAATAA returned a remaining target (mRNA or protein) (fraction of control) of 0.56. On the same count and under the same terms, the same measure for AGAAAATCCCTGTTCCCACT: 0.32; for GTTGTATGGTATACTTCAAA: 0.69. Regarding CTTGAGTAGCCATTGTCCAC, the remaining target (mRNA or protein) (fraction of control) was no less than 1. The sequence CAAATCAGCTTGAGTAGCCA came in with a remaining target (mRNA or protein) (fraction of control) of 0.49. With TTGCTGCCAGTGACTAACAG, the remaining target (mRNA or protein) (fraction of control) came to 0.46.

CTGTCAGAGGAGCTGTGGCT: the remaining target (mRNA or protein) (fraction of control) is 0.64.

TGTTTTCAATGGGAGAATAA showed a remaining target (mRNA or protein) (fraction of control) of 0.63. Turning to AGCAGACACCATCTGAGGAG, the remaining target (mRNA or protein) (fraction of control) amounted to 0.3. On the same count and under the same terms, the same measure for TGAGTAGCCATTGTCCACGC: 0.35; for TTGTCCACGCTGGATTTTCA: 0.52.

For the sequence CTAAAGGATGATTTACAGGT, the remaining target (mRNA or protein) (fraction of control) is 0.54. AGGTCCCAGCGGTACAACGA yielded a remaining target (mRNA or protein) (fraction of control) of 0.21. Still for that read-out and setting: the same measure for TAGCCATTGTCCACGCTGGA: 0.23; for CCCATAGGAAACTCAGCTTG: 0.29. Same read-out and setting: the same measure for CCTCTGATAACAATTCGGTT: 0.52; for TAGAGTGATTATGAATTAAT: 0.7.

Consider GTCCTGAGCAAGTTCACAGA, for which the remaining target (mRNA or protein) (fraction of control) was found to be 0.37. Still for that read-out and setting: the same measure for AGCTTGAGTAGCCATTGTCC: 0.34. With AGCCCACCAGCTAAACGCAC, the remaining target (mRNA or protein) (fraction of control) turned out to be 0.4. For CCTCTCAGCAACTCTACAGG, the remaining target (mRNA or protein) (fraction of control) worked out at 0.24. For the sequence AGTAGCCATTGTCCACGCTG, the remaining target (mRNA or protein) (fraction of control) came out at 0.37. Consider CTGGTCAGCTCAACTGAAAG, for which the remaining target (mRNA or protein) (fraction of control) turned out to be 0.41. Sequence AAACTGTGTAGATGGGATCT registered a remaining target (mRNA or protein) (fraction of control) of 0.57.

In turn, TTCTCTTGAAGCATCGTATC showed a remaining target (mRNA or protein) (fraction of control) of 0.2. The same measure, in the same setting: in the case of AATCAGCTTGAGTAGCCATT it was 0.31; in that of AGGCTAGGGTTTGCTAAATT, 0.47. Same read-out and setting: the same measure for ACCAGGGTGGTGGCCACCCA: 0.48; for TCGCCACACCTTCATTCCTA: 0.37.

Sequence TTATTGCAAGTGAGGTTAGA yielded a remaining target (mRNA or protein) (fraction of control) of 0.51. The same measure, in the same setting: the same measure for CATTGTCCACGCTGGATTTT: 0.72; for GCCATTGTCCACGCTGGATT: no less than 1.
